We go through two compounds from PubChem BioAssay (NCI).

Among the test systems are 786-0 renal; BT-549 breast; CCRF-CEM leukemia; HCC-2998 colon; HCT-116 colon; MALME-3M melanoma; MDA-MB-231 breast; NCI-H460 lung; RPMI-8226 leukemia; SR leukemia.
Common to all, as to assay: growth of human tumour cells (NCI), 48 h

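Each compound was tested at five concentrations against cells in 96-well plates for 48 hours. GI50 = concentration required for 50% inhibition of growth. The concentration for full growth arrest is given as TGI.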

In the case of `CN(C)c1ccc(/C=N/NC(=O)CSc2nc3sc4c(c3c(=O)n2-c2ccccc2)CCCCC4)cc1`, the GI50 in the test on 786-0 renal was 8.26 µM; in the test on BT-549 breast it was 16.1 µM; in the test on CCRF-CEM leukemia, 5.82 µM; in the test with HCC-2998 colon, 7.5 µM; with HCT-116 colon, 3.96 µM; in the test with MALME-3M melanoma, 3.45 µM. For the same compound, the GI50 in the test with MDA-MB-231 breast is 2.89 µM; in the test with NCI-H460 lung, 2.21 µM; in the test on RPMI-8226 leukemia it was greater than 100 µM; in the test on SR leukemia, 3 µM. Moreover, the TGI was 39.1 µM in the test on 786-0 renal; greater than 100 µM with BT-549 breast; greater than 100 µM in the test on CCRF-CEM leukemia; greater than 100 µM with HCC-2998 colon; greater than 100 µM in the test on HCT-116 colon; greater than 100 µM in the test on MALME-3M melanoma. In addition, the TGI in the test on MDA-MB-231 breast was 18 µM; with NCI-H460 lung it was 4.86 µM; in the test on RPMI-8226 leukemia, greater than 100 µM; with SR leukemia, greater than 100 µM.

As for `C=C(C)[C@@H]1CC[C@]2(C(=O)N3CCN(C)CC3)CC[C@]3(C)[C@H](CC[C@@H]4[C@@]5(C)C/C(=C/c6ccncc6)[C@H](O)C(C)(C)[C@@H]5CC[C@]43C)[C@@H]12`, the GI50 in the test on 786-0 renal was 2.71 µM; with BT-549 breast, 4.33 µM; in the test on CCRF-CEM leukemia, 3.3 µM; in the test with HCC-2998 colon it was 3.36 µM; with HCT-116 colon, 1.6 µM; in the test on MALME-3M melanoma it was 2.08 µM. Further, the GI50 is 4.46 µM in the test with MDA-MB-231 breast, 3.95 µM with NCI-H460 lung, 3.01 µM in the test on RPMI-8226 leukemia and 2.72 µM with SR leukemia. Further, the TGI with 786-0 renal is 13.3 µM; with BT-549 breast, 24.7 µM; with CCRF-CEM leukemia, 24.5 µM; in the test on HCC-2998 colon, 13.1 µM; with HCT-116 colon it was 4.46 µM; in the test with MALME-3M melanoma, 6.07 µM. In addition, the TGI with MDA-MB-231 breast is 19.3 µM; in the test with NCI-H460 lung, 17 µM; in the test on RPMI-8226 leukemia, 17 µM; in the test with SR leukemia it was 10.2 µM.
